Test results as given in patent US20160280651A1, “COMPOUNDS THAT INDUCE ABA RESPONSES” (THE REGENTS OF THE UNIVERSITY OF CALIFORNIA, priority 2013, published 2016).

Columns and labels:
[1] = test system: ABA-responsive genes; test: ABA-responsive gene expression in moss; assay type: in vivo, Physcomitrella patens; conditions: 200 μM for 3 h
Procedure: FIG. 17A-FIG. 17D. The effect of ABA and its agonists in Physcomitrella patens and Chlamydomonas. Protonemal growth images (A) and quantitative analysis (B) of the effects of ABA and agonists on Phsycomitrella patens. Protonema were grown on 200 μM of specific test chemical for 10 days. […] Pyrabactin bleached protonema. (C) The expression of ABA-responsive genes of Physcomitrella patens. Protonema were treated with 200 μM chemical solutions for 3 h. (D) Colony growth of Chlamydomonas on the chemical with salinity stress and osmotic stress. There was no effect of ABA and LC66C6 on the Chlamydomonas growth with and without stresses.

[2] = test system: GmNAC4 and GmbZIP1; test: Quantitative RT-PCR of ABA-responsive genes in soybean; assay type: in vivo
Description: FIG. 13A-FIG. 13E. LC66C6 modulates ABA responses in diverse species. Germination inhibition (A) and transpirational water loss in detached leaves 2-hours after detachment (B) in response to compounds shown. The expression of ABA-responsive marker genes in Soybean (C), Barley (D) and Maize (E) after application of chemicals. D, P, L and A indicate DMSO, pyrabactin, LC66C6 and (+)-ABA, respectively.
Total RNA was isolated using Plant RNA purification reagent (Invitrogen, USA) according to the manufacturer's instructions. cDNA was synthesized from 1 μg of total RNA using the QantiTec reverse transcription kit (Qiagen, USA). Real-time PCR using Maxima® SYBR Green/Fluorescein qPCR Master Mix (Fermentas) was performed with the iQ5 real-time PCR detection system (Bio-Rad, Hercules, Calif.). The relative amounts of target mRNAs were determined using the relative standard curve method and were normalized by relative amount of internal control mRNA. Biological triplicate experiments were performed.

[3] = test system: Arabidopsis seedlings; test: Root growth and plant growth inhibition of Arabidopsis seedlings; assay type: in vivo
Procedure: FIG. 6A-FIG. 6C. LC66C6 inhibits plant growth. (A) Photographs showing the effect of ABA, Pyrabactin and LC66C6 on the wild type, abi1-1 and PYR/PYL quadruple mutant Arabidopsis genotypes. (B) Root growth inhibition and (C) plant growth inhibition by ABA, LC66C6 and pyrabactin. Two day old seedlings were transferred on ½×MS plate containing chemicals and phenotypes scored or photographed after a 5-day incubation on test compounds.

[4] = test system: ABI1 with PYR/PYL receptors; test: Receptor-mediated PP2C inhibition assay with ABI1, Example 1; assay type: biochemical, Arabidopsis; conditions: 10 μM; receptors PYR1, PYL1, PYL2, PYL3 and PYL5
Procedure: (§1) FIG. 2A-FIG. 2C. Novel ABA agonists inhibit PPC2 activity through multiple PYR/PYL. (A) Chemical structure of naturally occurring (+)-ABA and selected ABA agonists. (B) and (C) HAB1, ABU, and ABI2 PP2C enzyme activity based ABA-agonist assays for various receptors in the presence or absence of 10 μM each test chemical.
(§2) HAB1 and PYL proteins were expressed and purified as described previously (Park S Y, et al. (2009) Abscisic Acid Inhibits Type 2C Protein Phosphatases via the PYR/PYL Family of START Proteins. Science 324(5930):1068-1071), with minor modifications. To obtain GST-HAB1, -ABI1 and -ABI2 fusion proteins, the HAB1 cDNA was cloned into pGex-2T whereas ABI1 and ABI2 cDNAs were cloned into the vector pGex-4T-1. […] After 16 hours incubation at 15° C., cells were harvested and recombinant proteins were purified on glutathione agarose as described previously (Park S Y, et al. (2009). To obtain 6×His-PYL receptor fusion proteins, receptor cDNAs for all 13 ABA receptors were cloned into the vector pET28 and expressed and purified as described previously (Mosquna A, et al. (2011) Potent and selective activation of abscisic acid receptors in vivo by mutational stabilization of their agonist-bound conformation. PNAS 108(51):20838-20843); this yielded soluble and functional protein (assessed using receptor-mediated PP2C inhibition assays) for all receptors except PYL7, PYL11 and PYL12. […]

[5] = test system: ABI2 with PYR/PYL receptors; test: Receptor-mediated PP2C inhibition assay with ABI2, Example 1; assay type: biochemical, Arabidopsis; conditions: 10 μM; receptors PYR1, PYL1, PYL2, PYL3 and PYL5
Procedure: as §1, §2

SMILES: CCCN1C(=O)CCc2cc(NS(=O)(=O)Cc3ccc(C)cc3)ccc21 [LC66C6]
- Expression of ABA-responsive genes in moss [1]: can induce the expression of ABA-responsive genes in moss
- Expression of ABA-responsive genes GmNAC4 and GmbZIP1 [2]: strongly induces
- Inhibition of plant growth ([3]; wild-type and mutant plants): significantly greater than the inhibition by pyrabactin, and comparable to that of (+)-ABA
- Inhibition of root elongation ([3]; wild-type, abi1 and quadruple mutant, all concentrations tested): comparable to or slightly more effective than (+)-ABA
- PP2C inhibition of ABI1 [4]: > 70%
- PP2C inhibition of ABI2 [5]: > 70%
